Legend:
[1] = system: Lactobacillus plantarum PN0512; test: Growth of L. plantarum PN0512 in the presence of butanols at different temperatures (OD600 for six hours); assay type: cell-based; design: key to Growth in the presence of 1-butanol / Growth in the presence of isobutanol / Growth in the presence of 2-butanol: “+” = growth observed as an increase in OD600.; “−” = no growth observed, i.e. no change in OD600
E. coli strain BW25113 = test: Survival of E. coli after 30 min MEK shock (colony counts); assay type: cell-based, Escherichia coli; conditions: for % Survival at 28° C. / % Survival at 37° C.: average of duplicate experiments

CCC(C)O (stereo not drawn) [2-butanol]
5.2%: concentration in which growth was observed ([1]; 25° C.)
4.9%: concentration in which growth was not observed ([1]; 30° C.)
4.5%: concentration in which growth was not observed ([1]; 37° C.)
4.7%: concentration in which growth was observed ([1]; 30° C.)
−: Growth in the presence of 2-butanol ([1]; 4.7 % w/v, 37° C.) | Growth in the presence of 2-butanol ([1]; 4.9 % w/v, 30° C.) | Growth in the presence of 2-butanol ([1]; 5.2 % w/v, 37° C.) | Growth in the presence of 2-butanol ([1]; 5.6 % w/v, 25° C.) | Growth in the presence of 2-butanol ([1]; 5.6 % w/v, 37° C.) | Growth in the presence of 2-butanol ([1]; 6.0 % w/v, 37° C.) | Growth in the presence of 2-butanol ([1]; 6.4 % w/v, 37° C.) | Growth in the presence of 2-butanol ([1]; 7.3 % w/v, 37° C.)
4.3%: concentration in which growth was observed ([1]; 37° C.)
+: Growth in the presence of 2-butanol ([1]; 1.8 % w/v, 37° C.) | Growth in the presence of 2-butanol ([1]; 2.1 % w/v, 37° C.) | Growth in the presence of 2-butanol ([1]; 2.9 % w/v, 25° C.) | Growth in the presence of 2-butanol ([1]; 2.9 % w/v, 30° C.) | Growth in the presence of 2-butanol ([1]; 2.9 % w/v, 37° C.) | Growth in the presence of 2-butanol ([1]; 3.1 % w/v, 37° C.) | Growth in the presence of 2-butanol ([1]; 3.6 % w/v, 37° C.) | Growth in the presence of 2-butanol ([1]; 3.8 % w/v, 25° C.) | Growth in the presence of 2-butanol ([1]; 3.8 % w/v, 30° C.) | Growth in the presence of 2-butanol ([1]; 3.8 % w/v, 37° C.) | Growth in the presence of 2-butanol ([1]; 4.0 % w/v, 30° C.) | Growth in the presence of 2-butanol ([1]; 4.3 % w/v, 25° C.) | Growth in the presence of 2-butanol ([1]; 4.3 % w/v, 30° C.) | Growth in the presence of 2-butanol ([1]; 4.3 % w/v, 37° C.) | Growth in the presence of 2-butanol ([1]; 4.7 % w/v, 25° C.) | Growth in the presence of 2-butanol ([1]; 4.7 % w/v, 30° C.) | Growth in the presence of 2-butanol ([1]; 4.9 % w/v, 25° C.) | Growth in the presence of 2-butanol ([1]; 5.2 % w/v, 25° C.) | Growth in the presence of 2-butanol ([1]; […] w/v, 30° C.)

CCC(C)=O [MEK, 2-butanone]
100%: % Survival at 28° C. (E. coli strain BW25113; MEK 4 % w/v) | % Survival at 37° C. (E. coli strain BW25113; MEK 4 % w/v) | % Survival at 28° C. (E. coli strain BW25113; MEK 6 % w/v)
6 % w/v: concentration with full survival (E. coli strain BW25113; exposure at 28° C.) | concentration with no survival (E. coli strain BW25113; exposure at 37° C.)
0.002%: % Survival at 28° C. (E. coli strain BW25113; MEK 8 % w/v)
4 % w/v: concentration with full survival (E. coli strain BW25113; exposure at 37° C.)
0%: % Survival at 37° C. (E. coli strain BW25113; MEK 6 % w/v) | % Survival at 37° C. (E. coli strain BW25113; MEK 8 % w/v)

CC(C)CO [isobutanol]
−: Growth in the presence of isobutanol ([1]; 3.3 % w/v, 30° C.)

From US20130217060A1 (Butamax(TM) Advanced Biofuels LLC, priority 2007, published 2013)
